Results as given in patent US20030176314A1, “Compounds for the treatment of pain” (priority 2001, published 2003).
pKi: −log10 of the molar value.

How the values were obtained:
[1] = target: T1, rat NPFF2 receptor (Rattus norvegicus, UniProt Q9EQD2); assay: Functional assay (agonist potency, intrinsic activity) at cloned rat NPFF2 receptor; type: cell-based; conditions: Table 7, intrinsic activity
T1 construct: The full-length NPFF2 was amplified from rat spinal cord cDNA; expressed in transfected cells; host or cells: not given

[2] = target: T2, human Y1 receptor (Homo sapiens, UniProt P25929); assay: Binding at human neuropeptide Y Y1 receptor; conditions: Table 8; read-out: hY1 Ki
T2 construct: host or cells: 293 cells, line 293-hY1-5
T2 sequence (P25929 1-384): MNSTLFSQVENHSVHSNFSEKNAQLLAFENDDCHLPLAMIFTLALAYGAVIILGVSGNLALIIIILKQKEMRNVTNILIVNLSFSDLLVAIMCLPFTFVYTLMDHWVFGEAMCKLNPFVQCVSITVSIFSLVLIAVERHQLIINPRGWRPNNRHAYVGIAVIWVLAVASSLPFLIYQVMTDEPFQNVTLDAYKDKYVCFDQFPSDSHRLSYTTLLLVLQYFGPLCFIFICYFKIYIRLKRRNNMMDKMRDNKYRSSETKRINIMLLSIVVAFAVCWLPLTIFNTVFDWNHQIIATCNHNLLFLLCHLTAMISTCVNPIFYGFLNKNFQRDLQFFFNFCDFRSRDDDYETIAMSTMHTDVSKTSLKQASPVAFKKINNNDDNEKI
Text: (§1) Neuropeptide receptors: Stably transfected cell lines which may be used for binding experiments include, for the Y1 receptor, 293-hY1-5 (deposited Jun. 4, 1996, under ATCC Accession No. CRL-12121); for the Y2 receptor, 293-hY2-10 (deposited Jan. 27, 1994, under ATCC Accession No. CRL-11837); for the Y4 receptor, L-hY4-3 (deposited Jan. 11, 1995, under ATCC Accession No. CRL 11779); and for the Y5 receptor, L-hY5-7 (deposited Nov. 15, 1995, under ATCC Accession No. CRL 11995).
(§2) Binding assays using the NPY receptors may be carried out according to the procedures described in U.S. Pat. No. 5,602,024, the disclosure of which is hereby incorporated by reference in its entirety into this application.
(§3) The binding affinity (Ki) of these compounds were tested according to the protocols described herein at the following receptors; human α1A, α1B, α1D, α2A, α2B, and α2C adrenergic receptors; human Y1, Y2, Y4, and Y5 receptors; and N-Methyl-D-aspartic acid (NMDA) receptor channels. The binding interactions of these compounds were additionally tested at the norepinephrine (NE) transporter (NE uptake) and serotonin (5-hydroxytryptamine (5HT)) transporter (5HT uptake) according to protocols described herein

[3] = target: T3, human Y4 receptor (Homo sapiens, UniProt P50391); assay: Binding at human neuropeptide Y Y4 receptor; conditions: Table 8; read-out: hY4 Ki
T3 construct: host or cells: L cells, line L-hY4-3
Text: as §1, §2, §3

[4] = target: T4, serotonin (5HT) transporter (Rattus norvegicus, UniProt P31652); assay: Binding at native serotonin transporter (5HT uptake); conditions: Table 8
T4 construct: evaluated at native, tissue-derived transporters; from tissue
Outline: (§4)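 Binding (Ki) at native, tissue-derived rat serotonin and norepinephrine transporters, measured by the Owens (1997) protocol.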

[5] = target: T5, human Y2 receptor (Homo sapiens, UniProt P49146); assay: Binding at human neuropeptide Y Y2 receptor; conditions: Table 8; read-out: hY2 Ki
T5 construct: host or cells: 293 cells, line 293-hY2-10
T5 sequence (P49146 1-381): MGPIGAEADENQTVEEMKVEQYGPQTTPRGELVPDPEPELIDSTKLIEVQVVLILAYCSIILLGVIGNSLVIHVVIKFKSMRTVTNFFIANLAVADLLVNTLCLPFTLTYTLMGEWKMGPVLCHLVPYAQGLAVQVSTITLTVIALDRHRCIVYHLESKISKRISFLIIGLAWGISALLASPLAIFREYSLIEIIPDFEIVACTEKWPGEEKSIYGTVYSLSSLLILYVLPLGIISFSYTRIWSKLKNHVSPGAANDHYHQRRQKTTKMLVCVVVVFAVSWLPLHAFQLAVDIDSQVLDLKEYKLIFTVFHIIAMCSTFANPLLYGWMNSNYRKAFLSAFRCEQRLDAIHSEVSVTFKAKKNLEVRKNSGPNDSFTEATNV
Text: as §1, §2, §3

[6] = target: T6, human Y5 receptor (Homo sapiens, UniProt Q15761); assay: Binding at human neuropeptide Y Y5 receptor; conditions: Table 8; read-out: hY5 Ki
T6 construct: host or cells: L cells, line L-hY5-7
T6 sequence (Q15761 1-445): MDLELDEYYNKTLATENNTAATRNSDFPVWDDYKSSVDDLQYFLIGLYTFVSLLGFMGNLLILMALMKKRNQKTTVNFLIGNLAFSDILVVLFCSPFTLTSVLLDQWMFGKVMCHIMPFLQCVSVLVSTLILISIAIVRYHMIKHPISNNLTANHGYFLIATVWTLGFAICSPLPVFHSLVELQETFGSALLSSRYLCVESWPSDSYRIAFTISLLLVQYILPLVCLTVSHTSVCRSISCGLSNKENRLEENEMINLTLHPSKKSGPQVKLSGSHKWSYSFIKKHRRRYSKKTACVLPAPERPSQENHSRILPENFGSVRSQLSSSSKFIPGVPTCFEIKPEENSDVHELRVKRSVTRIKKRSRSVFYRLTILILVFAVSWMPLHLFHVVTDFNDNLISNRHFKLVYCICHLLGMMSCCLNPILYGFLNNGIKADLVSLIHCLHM
Text: as §1, §2, §3

[7] = target: T7, norepinephrine (NE) transporter (Rattus norvegicus, UniProt Q63380); assay: Binding at native norepinephrine transporter (NE uptake); conditions: Table 8
T7 construct: evaluated at native, tissue-derived transporters; from tissue
Outline: as §4

T3 sequence (P50391 whole entry): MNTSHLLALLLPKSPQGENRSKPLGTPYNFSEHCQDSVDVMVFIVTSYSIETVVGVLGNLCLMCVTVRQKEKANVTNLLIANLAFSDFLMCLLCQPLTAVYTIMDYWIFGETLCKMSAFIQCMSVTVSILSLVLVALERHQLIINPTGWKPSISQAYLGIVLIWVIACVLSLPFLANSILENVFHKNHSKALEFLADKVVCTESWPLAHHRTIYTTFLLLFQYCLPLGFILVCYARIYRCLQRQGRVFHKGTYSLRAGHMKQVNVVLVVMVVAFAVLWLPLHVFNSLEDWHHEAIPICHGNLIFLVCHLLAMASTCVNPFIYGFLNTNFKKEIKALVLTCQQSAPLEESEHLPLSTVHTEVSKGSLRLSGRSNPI
T1 sequence (Q9EQD2 whole entry): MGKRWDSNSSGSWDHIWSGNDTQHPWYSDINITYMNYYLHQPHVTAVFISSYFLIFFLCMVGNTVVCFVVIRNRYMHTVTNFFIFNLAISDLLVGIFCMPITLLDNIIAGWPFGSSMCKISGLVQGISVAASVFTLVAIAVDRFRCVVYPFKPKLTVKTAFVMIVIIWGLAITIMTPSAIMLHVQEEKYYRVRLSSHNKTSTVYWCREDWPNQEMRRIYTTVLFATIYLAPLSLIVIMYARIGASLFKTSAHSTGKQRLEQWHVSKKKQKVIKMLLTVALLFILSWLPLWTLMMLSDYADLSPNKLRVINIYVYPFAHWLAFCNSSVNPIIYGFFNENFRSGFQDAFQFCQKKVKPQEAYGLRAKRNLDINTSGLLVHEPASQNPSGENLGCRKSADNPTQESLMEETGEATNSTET
T7 sequence (Q63380 1-617): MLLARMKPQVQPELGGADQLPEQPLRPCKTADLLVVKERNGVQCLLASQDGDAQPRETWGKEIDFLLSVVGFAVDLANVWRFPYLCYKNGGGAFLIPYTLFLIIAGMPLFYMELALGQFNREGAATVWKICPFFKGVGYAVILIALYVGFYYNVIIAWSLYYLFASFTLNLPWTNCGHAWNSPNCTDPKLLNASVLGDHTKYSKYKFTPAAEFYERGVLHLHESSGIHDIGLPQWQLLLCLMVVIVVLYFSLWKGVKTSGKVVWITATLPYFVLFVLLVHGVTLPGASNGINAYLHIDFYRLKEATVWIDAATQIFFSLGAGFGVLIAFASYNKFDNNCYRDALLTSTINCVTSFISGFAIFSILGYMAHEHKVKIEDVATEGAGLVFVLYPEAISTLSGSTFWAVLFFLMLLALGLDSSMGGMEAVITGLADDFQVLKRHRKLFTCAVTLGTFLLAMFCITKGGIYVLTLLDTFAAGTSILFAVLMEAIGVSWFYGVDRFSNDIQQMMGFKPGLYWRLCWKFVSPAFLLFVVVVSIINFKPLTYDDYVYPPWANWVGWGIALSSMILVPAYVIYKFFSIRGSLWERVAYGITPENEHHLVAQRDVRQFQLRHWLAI
T4 sequence (P31652 whole entry): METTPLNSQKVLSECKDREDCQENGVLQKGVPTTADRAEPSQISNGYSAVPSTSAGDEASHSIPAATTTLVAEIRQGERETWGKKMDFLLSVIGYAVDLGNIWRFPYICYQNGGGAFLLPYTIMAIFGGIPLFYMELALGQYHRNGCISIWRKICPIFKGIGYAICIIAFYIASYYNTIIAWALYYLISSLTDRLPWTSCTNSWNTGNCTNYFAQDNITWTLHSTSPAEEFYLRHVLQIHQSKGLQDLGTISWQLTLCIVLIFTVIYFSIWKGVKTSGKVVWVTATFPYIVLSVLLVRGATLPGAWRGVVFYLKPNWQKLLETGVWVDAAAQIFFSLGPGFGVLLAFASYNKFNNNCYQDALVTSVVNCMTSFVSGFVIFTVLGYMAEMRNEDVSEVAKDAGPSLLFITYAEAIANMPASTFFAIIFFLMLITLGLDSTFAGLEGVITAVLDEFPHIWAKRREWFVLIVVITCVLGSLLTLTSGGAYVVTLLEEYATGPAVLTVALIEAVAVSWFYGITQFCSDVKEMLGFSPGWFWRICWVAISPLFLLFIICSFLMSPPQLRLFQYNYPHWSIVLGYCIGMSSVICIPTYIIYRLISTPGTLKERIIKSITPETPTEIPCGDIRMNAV

| Structure (SMILES) | rNPFF2 IA [1] [% NPFF] | pKi [2] | pKi [3] | pKi [4] | pKi [5] | pKi [6] | pKi [7] |
| --- | --- | --- | --- | --- | --- | --- | --- |
| Cc1nc(NC(=N)N)nc2ccc3ccccc3c12 [Compound 1007A] | 66 | 5.28 | 5.58 | 7.59 | < 4.30 | 7.13 | 5.71 |
| Cc1cc(NC(=N)N)nc2ccc(Cl)cc12 [Compound 4005A, N-(6-chloro-4-methyl-2-quinolinyl)guanidine] | 61 | 4.91 | 5.30 | 5.59 | < 4.30 | 6.45 | 5.08 |
